Results as given in paper PMC12289066, “Identification of glutathione transferase (GST P1) inhibitors via a high-throughput screening assay and implications as alternative treatment options for breast cancers” (PLOS One, 2025).
Like-named read-outs stand apart in the source and are kept apart here.

How the values were obtained:
MCF-7 cells = assay: MTT cytotoxicity assay, MCF-7; assay type: cell-based, human; settings: MTT, 72 h incubation, read-out: IC50 (average ± standard deviation) MCF-7
Protocol: (§1) L929, MCF-7, and MDA-MB-231 cell lines were cultured in DMEM GlutaMAX media containing 10% heat-inactivated FBS and 1% (v/v) penicillin-streptomycin at 37°C and CO2 (5%). Cytotoxicity was determined using a 3-(4,5-dimethyl 2-thiazolyl)-2,5-diphenyl-2H-tetrazolium bromide (MTT) assay. 100 μL aliquots and approximately 50’000 cells/well were added to each well of flat-bottomed 96-well plates and incubated for 24 h in a humidified chamber at 37°C under saturated air with a 5% CO2 atmosphere. Stock solutions of 10 mM drug compounds were prepared in DMSO and were sequentially diluted with the cell culture buffer to give a final DMSO concentration of 0.5%. The solutions were added to the 96-well plates in 100 μL aliquots and 100 μL of buffer was added as a control to give a final drug compound concentration range of 0 − 100 μM. The plates were incubated for a further 72 h under the same conditions as before. MTT (10 μL, 5 mg/mL in Dulbecco’s phosphate-buffered saline) was added to each well and the plates were incubated for a further 3 h under the same conditions as before. The culture medium was aspirated from each well and the purple formazan crystals, formed by the mitochondrial dehydrogenase activity of vital cells, were dissolved in 100 μL DMSO. The absorbance of the resulting solutions was measured at 570 and 630 nm using a SpectraMax M5e multimode microplate reader and SoftMax Pro software, version 6.2.2. As the absorbance is directly proportional to the number of surviving cells, the percentage of surviving cells was calculated from the absorbance of wells relative to the control. The reported IC50 values are based on the mean from four independent experiments, each comprising three replicates per concentration.

L929 cells = assay: MTT cytotoxicity assay, L929; assay type: cell-based, mouse; settings: MTT, 72 h incubation, read-out: IC50 (average ± standard deviation) L929
Protocol: as §1, with “Cytotoxicity” for “L929, MCF-7, and MDA-MB-231 cell lines were cultured in DMEM GlutaMAX media containing 10% heat-inactivated FBS and 1% (v/v) penicillin-streptomycin at 37°C and CO2 (5%). Cytotoxicity”, “Stock solutions of 10 mM drug compounds were prepared in DMSO and were sequentially diluted with the cell culture buffer to give a final DMSO concentration of 0.5%. The solutions were added to the 96-well plates in 100 μL aliquots and 100 μL of buffer was added as a control to give a final drug compound concentration range of 0 − 100 μM.” left out

GST P1-1 [1] = molecular target: T1, GST P1-1 (Homo sapiens, UniProt P09211); assay: Determination of IC50 for GST P1-1 enzyme (dose-response / reconfirmation assay); assay type: biochemical
T1 construct: purchased Sigma-Aldrich
Protocol: (§2) Each drug compound was added to the respective well at a volume of 80 nL of 10 mM stock solution in DMSO, yielding a final compound concentration of 10 μM and a final DMSO concentration of 0.1%. Each plate’s first and last two columns were used as negative (no compound added – 80 nL per well of DMSO) and positive (80 nL of EA added with a final concentration of 50 μM) controls, respectively. The Gyger Certus Flex dispenser was set up using a freshly prepared 1 mM of GSH and 20 nM of GST P1-1, pH 7.4, in one syringe and 8 mM CDNB solution in pure ethanol in the other syringe. Into each well 80 μL of GST-GSH solution was dispensed and incubated at 25°C for 20 minutes before the reaction was initiated by the addition of 4 μL of CDNB solution. The plates were incubated for 2 h in the dark at 25°C and then the absorbance was of each well recorded on a BioTek Synergy NEO HTS multimode plate reader (Agilent®) at a wavelength of 340 nm.
The IC50 of the GST P1-1 enzyme was determined for the 80 drug compounds with the highest score in the GST P1-1 screening assay. The assay conditions were used for the screening assay and each drug compound was tested at 8 different concentrations (μM) starting at 30 µM final assay concentration with a half-log dilution and 2 replicates per concentration.

MDA-MB-231 cells = assay: MTT cytotoxicity assay, MDA-MB-231; assay type: cell-based, human; settings: MTT, 72 h incubation, read-out: IC50 (average ± standard deviation) MDA-MB-231
Protocol: as §1

GST P1-1 [2] = molecular target: T1, GST P1-1; assay: High-throughput GST P1-1 inhibition assay (384-well screen, CDNB/GSH); assay type: biochemical; settings: compound 10 μM; score 0 = negative control (DMSO), 1 = positive control (EA 50 μM); average of duplicate
Protocol: as §2
The z’factor was calculated for each plate according to Zhang et al.. The Z-factor is a dimensionless, simple statistical characteristic for each HTS assay. This provides a valuable tool for the comparison and assessment of the quality of assays, and can be utilized in assay optimization and validation. For each plate, the concentration of product was normalized by assigning a score of 0 (0%) to the negative control (average of maximal concentration of product measured in the presence of enzyme without any inhibitor) and a score of 1 (100%) was assigned to the positive control (average minimal concentration of product measured in the presence of enzyme with the reference inhibitor, i.e., EA). The experiment was performed in duplicate and the score for each drug compound was calculated as an average ± standard deviation. […] An internal laboratory information management system (LIMS) was used for basic data processing, management, visualization, and statistical hit validation.

[3] = Table 2, rounded values, read-out: IC50 GSTP1 enzymatic reaction
[4] = reconfirmation assay, Table S2, read-out: IC50 GSTP1

T1 sequence (P09211 2-210 limits assumed): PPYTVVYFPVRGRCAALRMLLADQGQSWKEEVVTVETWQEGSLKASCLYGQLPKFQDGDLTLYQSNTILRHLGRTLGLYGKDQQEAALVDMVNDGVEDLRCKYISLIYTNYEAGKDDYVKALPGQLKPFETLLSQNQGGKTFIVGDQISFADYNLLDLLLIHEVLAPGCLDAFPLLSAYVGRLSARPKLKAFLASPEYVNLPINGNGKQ

Row | Structure (SMILES) | IC50 (MCF-7 cells; Homo sapiens, MCF7) [µM] | IC50 (L929 cells; Mus musculus, L929) [µM] | IC50 (GST P1-1 [1]; [3]) [µM] | Hill Slope (dose-response curve) (GST P1-1 [1]; reconfirmation assay) | IC50 (GST P1-1 [1]; [4]) [µM] | IC50 (MDA-MB-231 cells; Homo sapiens, MDA-MB-231) [µM] | Score (GST P1-1 [2]) | IC50 (MCF-7 cells) [µM] | IC50 (L929 cells) [µM] | IC50 (MDA-MB-231 cells) [µM]
1 | Cc1cc(=O)n(-c2ccccc2)[nH]1 [5-Methyl-2-phenyl-1,2-dihydropyrazol-3-one] | > 100 | > 100 | 0.8 | 0.8 | 0.83 | > 100 |  |  |  | 
2 | O=C1NC(=O)/C(=C/c2ccc(-c3ccc(F)cc3O)o2)S1 [AS252424] |  |  | 0.6 | 1.95 | 0.61 |  | 0.907 | 38 ± 2 | 24 ± 2 | 91 ± 3
3 | C[C@@H]1Cc2c([nH]c3ccccc23)[C@@H](c2c(F)cc(/C=C/C(=O)O)cc2F)N1CC(C)(C)F [AZD9496] | 14 ± 1 | 36 ± 4 | 2.1 | 2.23 | 2.05 | 47 ± 5 | 0.806 |  |  | 
4 | CC(C)c1cc(C(C)C)c(CC(=O)NS(=O)(=O)Oc2c(C(C)C)cccc2C(C)C)c(C(C)C)c1 [Avasimibe] | 12 ± 1 | 13 ± 1 | 0.4 |  | 0.37 | 16 ± 1 | 0.835 |  |  | 
5 | O=C(O)c1ccc2cc(-c3ccc(O)c(C45CC6CC(CC(C6)C4)C5)c3)ccc2c1 [CD437] |  |  | 0.3 | 11.6 | 0.32 |  | 0.939 | 0.51 ± 0.05 | 0.24 ± 0.03 | 0.74 ± 0.07
6 | CCCCCCCCCCCC1=C(O)C(=O)C=C(O)C1=O [Embelin] | 11 ± 1 | 14 ± 1 | 0.6 | 1.46 | 0.64 | 12 ± 1 | 0.935 |  |  | 
7 | C=C(CC)C(=O)c1ccc(OCC(=O)O)c(Cl)c1Cl [Ethacrynic acid, EA, Ethacrynic acid] | 13 ± 1 | > 100 |  |  |  | 14 ± 1 |  |  |  | 
8 | Cl.O=C(O)Cc1cccc(OCCCN(Cc2cccc(C(F)(F)F)c2Cl)CC(c2ccccc2)c2ccccc2)c1 [GW3965 (hydrochloride)] |  |  | 0.4 | 2.48 | 0.43 |  | 1.027 | 25 ± 1 | 24 ± 2 | 54 ± 1
9 | Oc1c(Cl)cc(Cl)c(Cl)c1Cc1c(O)c(Cl)cc(Cl)c1Cl [Hexachlorophene] | 14 ± 1 | 11 ± 1 | 0.4 | 2.2 | 0.42 | 9 ± 1 | 1.077 |  |  | 
10 | Cc1cc(O)c2c(=O)c3c(O)cc(O)c4c5c(O)cc(O)c6c(=O)c7c(O)cc(C)c8c1c2c(c34)c(c78)c65 [Hypericin] | 8 ± 1 | 19 ± 1 | 0.1 | 11.6 |  | 26 ± 3 | 0.774 |  |  | 
